Reference: ChEMBL document CHEMBL3507680, “University of Dundee, Gates Library screen for HepG2 cell viability”

Test: Human HepG2 cell viability assay in 384 well format
Assay type: toxicity, cell-based
Parameters: dose 125 nL, time 70.5 hour; cytotoxicity at 70.5 h: concentration not given beside the values
Details: HepG2 cells, read-out: Inhibition

| Compound | cytotoxicity at 70.5 h [%] |
| --- | --- |
| FC(F)(F)COc1cccc(-c2nc3c([nH]2)CCNC3)c1 | -4.72 |
| COCC(NC(=O)c1cc(NC(C)=O)ccc1Cl)c1ccccn1 (centres undefined) | -5.35 |
| CN1CCC(Oc2ccc(-n3ccnc3-c3nccn3C)cc2)CC1 | -8.7 |
| O=C(NCC(O)c1cccc(F)c1)C1CCN(C(=O)C2CCC2)CC1 (centres undefined) | -1.02 |
| CNc1cc(C)nc(-c2cc(NCCO)nc3[nH]ccc23)n1 | 11.9 |
| CCc1cc(N[C@@H](CO)C(N)=O)n2nc(C)c(C)c2n1 | -2.72 |
| CCS(=O)(=O)N[C@H]1CN(Cc2noc(COC)n2)C[C@@H]1C1CC1 | -8.57 |
| CCN(Cc1nc(COC)no1)Cc1cccnc1NC(=O)C(C)(C)C | -9.55 |
| COCc1ncc(CN2CCC3(CCC(=O)N(CC(C)O)C3)CC2)cn1 (centres undefined) | -9.93 |
| CCCn1cnnc1-c1nc2c([nH]1)CC(c1ccc(Cl)cc1)CNC2=O (centres undefined) | 8.16 |
| COCCN1CCCC(CN(C)c2nc3c(s2)c(C)nn3C)C1 (centres undefined) | -4.58 |
| CC1(C)CN(C(=O)c2cnc(-c3ccccn3)nc2)CC[C@]1(C)O | 0.152 |
| COc1nccnc1-c1cc(NC2CCNCC2)nc2[nH]ccc12 | -0.195 |
| Cc1cc(C)c2ncn(CCC(C)O)c(=O)c2c1 (centres undefined) | -5.19 |
| C[C@@H]1CN(c2nc3c(cc2C(N)=O)CCC3)CC[C@@]1(O)C1CCC1 | -12.9 |
| CN(C)Cc1nnc(C(=O)N(C)Cc2ccc(F)cc2)o1 | -4.17 |
| O=C(CC[C@@H]1CCCN2CCCC[C@H]12)NCCc1cc(O)ncn1 | -11.3 |
| CCC[C@@H]1CN(Cc2cnc3c(S(C)(=O)=O)cnn3c2)C[C@H]1N(C)C | -7.08 |
| Cc1ccc(N2Cc3cnn(Cc4ccc(F)cc4)c3C2)nn1 | -4.14 |
| CN(C)c1ncnc2c1CCN(C(=O)c1sccc1S(N)(=O)=O)C2 | -2.96 |
| CC(C)C1=NOC(c2nc(Cc3ccccc3)no2)C1 (centres undefined) | -1.11 |
| CCn1c(CN2CCCC2)nnc1C1CCN(Cc2ccncc2)CC1 | 19.4 |

| Compound | cytotoxicity at 70.5 h [%] |
| --- | --- |
| Cc1cc(C(=O)N2CCN(Cc3ccco3)C(CCO)C2)cc(=O)[nH]1 (centres undefined) | 21.1 |
| COc1ccc(OCc2nc(C(=O)NCCN3CCOCC3)co2)cc1 | -5.59 |
| OC1(CNCCSc2ccccn2)CNCCOC1 (centres undefined) | 1.38 |
| O=c1[nH]c2cc3c(cc2cc1CN1CCCC1c1ccccn1)CCC3 (centres undefined) | 9.53 |
| Cc1cccc(OCC2CCCN(C(=O)CN(C)C3CCNCC3)C2)c1 (centres undefined) | 11.3 |
| COCc1cn(CC2CCN(Cc3c(C)[nH]c4ccccc34)CC2)nn1 | -7.19 |
| CC(C)CN(C)Cc1c[nH]nc1-c1ccc(F)cc1F | -15 |
| O=C1CC(c2cccs2)c2cnn(C3CCCC3)c2N1 (centres undefined) | 6.7 |
| CN(C)Cc1nnc(C2CCN(C(=O)CCc3cccs3)CC2)n1C | -8.36 |
| CN(C)C(=O)N1C[C@@H]2CC[C@H](C1)N(C(=O)CCCn1cncn1)C2 | -10.6 |
| O=C1N(Cc2cccc(F)c2F)CCCC1(O)CNC1CCCC1 (centres undefined) | -2.45 |
| CC(C)CN1CCCn2nc(CNC(=O)c3cccnc3O)cc2C1 | 14.1 |
| Cn1cccc1-c1cc(C(=O)N2CCCC2c2cccnc2)[nH]n1 (centres undefined) | -4.46 |
| CN(CCN1CCCCC1)C(=O)c1cc(CN2CCOCC2)on1 | 2.75 |
| CC(C)c1nc(N2CC(N3CCCCC3C)C2)c2cnn(C)c2n1 (centres undefined) | 12 |
| O=C(NC1CCCC1)N1CCCC(c2nccn2Cc2ccncc2)C1 (centres undefined) | 0.665 |
| O=C(NC[C@@H]1CCCN1)c1cc(COc2cccc(C(F)(F)F)c2)[nH]n1 | -1.5 |
| CN(CCc1ccccc1)c1cnn(CC(=O)N2CCSCC2)c(=O)c1 | -3.48 |
| Cc1ccccc1CC1(CO)CCCN(c2ncccc2C#N)C1 (centres undefined) | -4.27 |
| CN(C)C(=O)N1CCn2nc(CNC(=O)CCC(F)(F)F)cc2C1 | -3.05 |
| CSc1ccccc1CN1CCn2nc(CNC(C)=O)cc2C1 | -0.83 |
| CCNC(=O)[C@@H]1C[C@@H](NC(=O)c2cccnc2O)CN1Cc1ccsc1 | -11.2 |
